Here are results for 1 compound from patent publication US20130190370A1, “Novel Tetrahydronaphalene Antagonists to the Thromboxane A2 (TP) Receptor” (The Trustees of the University of Pennsylvania, priority 2010, published 2013).

The target in series [1] is T1, mouse TP receptor (Mus musculus, UniProt P30987).
T1 construct: expressed in transfected cells
T1 sequence (P30987 1-341): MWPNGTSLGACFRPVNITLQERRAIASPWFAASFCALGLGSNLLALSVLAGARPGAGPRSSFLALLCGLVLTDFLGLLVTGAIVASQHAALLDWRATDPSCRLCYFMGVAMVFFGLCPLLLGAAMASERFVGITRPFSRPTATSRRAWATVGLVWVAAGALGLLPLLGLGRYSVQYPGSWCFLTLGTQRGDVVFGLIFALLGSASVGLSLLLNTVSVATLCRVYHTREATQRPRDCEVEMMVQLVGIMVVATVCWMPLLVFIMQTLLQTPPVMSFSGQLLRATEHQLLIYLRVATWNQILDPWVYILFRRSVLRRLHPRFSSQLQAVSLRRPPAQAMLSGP
Description: Radioligand binding assay (3H-SQ29,548), mouse TP receptor. As to conditions: read-out: Kd / affinity at the mouse TP receptor. How it is done: QBI-HEK 293A cells expressing human or mouse TxA2 (TP) receptor were grown as described previously and harvested in phosphate-buffered saline with 1 mM EDTA. The cell pellet was homogenized in a glass homogenizer in 20 mM Hepes, 1 mM EGTA, 0.5 mM DTT with protease inhibitor cocktail. The homogenate was initially centrifuged at 1000×g for 10 minutes at 8° C. to remove cell debris. The homogenate was then centrifuged in a Beckman L8-70M ultracentrifuge (Beckman-Coulter, Brea, Calif., USA) at 21,000 rpm for 30 minutes at 4° C., and the pellet was resuspended in 20 mM Hepes, 1 mM EGTA, 100 mM NaCl. Membrane preparations were normalized to protein level as determined with a BCA assay (ThermoFisher, Rockland, Ill.) and stored at −80° C.
Test antagonists were incubated at 10 different concentrations with 25 μg membrane and 25 nM ^3H-SQ29,548 (PerkinElmer, Waltham, Mass., USA) in 50 mM Tris, 4 mM CaCl2, 0.1% ascorbic acid pH 7.5 for 2 hours at 25° C. in 96-well polystyrene plates. Separation of bound from free radioligand was accomplished by rapid vacuum filtration onto 96-well GF/B filter plates (PerkinElmer, Waltham, Mass., USA). Filters were washed 8 times in 50 mM Tris, pH 6.9 and allowed to dry for 16 hours, Plates were sealed and filters dissolved in 50 μL Betaplate Scintillation fluid (PerkinElmer, Waltham, Mass., USA) and read on a scintillation counter. Data are presented as percent total binding as calculated by a minimum of 3 wells containing membrane and ^3H-SQ29,548 without antagonist.
Equilibrium dissociation constants (Kd), IC50, and Schild regression analyses was performed with GraphPad Prism software (GraphPad Software Inc., La Jolla, Calif., USA).
To facilitate the characterization of the new compounds, cell-based TP receptor functional assays were optimized. HEK293 clones have been produced that stably express the human (hTP) or mouse (mTP) TP receptor (a isoform), and treatment of these clones with I-BOP ([1S-[1α,2α(Z),3β(1E,3S*),4α]]-7-[3-[3-hydroxy-4-(4-iodophenoxy)-1-butenyl]-7-oxabicyclo[2.2.1]hept-2-yl]-5-heptenoic acid) results in increased production of inositol triphosphate (IP3) (Knezevic, et al., 1993, Blood 82:A156; Shenker, et al., 1991, J Biol Chem 266:9309-9313; Huang, et al., 2004, Cell Signal 16:521-533) which can be quantified by measuring the breakdown product, inositol monophosphates (IP1), using a commercial time-resolved fluorescence assay. […] A radioligand binding assay was also developed to allow for the determination of binding affinities of compounds at the hTP and mTP receptors.

The nature of series [2]: S18886 brain and plasma levels after administration to mice in drinking water. It is filed as in vivo. The protocol: Brain and plasma drug levels of S18886 were measured after administration to mice in drinking water, as previously described (Shineman, et al., 2008, J. Neurosci 28:4785-4794). Mice have 20-30 separate drinking bouts over the course of the day (Gannon, et al., 1992, Physiol Behav. 51:515-521), albeit with much greater water consumption during the night. […] In fact, extended exposure to excessively high blood levels of a TP receptor antagonist could increase the risk of bleeding complications due to compromise of platelet function, as it is known that TP receptor knockout mice and TxA2 synthase-deficient mice have prolonged clotting times (Thomas, et al., 1998, J Clin Invest 102:1994-2001; Yu, et al., 2004, Blood 104:135-142). Furthermore, inactivating mutations in the TP receptor have been linked to a dominantly inherited bleeding disorder in humans (Hirata, et al., 1994, J Clin Invest 94:1662-1667).

Take `Cc1ccc2c(c1CCC(=O)O)CC[C@@H](NS(=O)(=O)c1ccc(Cl)cc1)C2` [Compound S18886]: the Kd in series [1] was 0.36 nM. In series [2] (drinking water dosing), the “free drug in plasma relative to brain” value was above 10 ×. The “calculated free drug concentration in brain as % of Kd at mouse TP receptor” value in series [2] (drinking water dosing, daylight phase) was around 30%. For the same compound, in series [2] (mouse, brain, oral, dosing by drinking water, day 1, daylight phase, read-out: Free S18886 brain level), the concentration at 1 day was 0.093 nM. The concentration at 2 day in series [2] (mouse, brain, oral, dosing by drinking water, day 2, daylight phase, read-out: Free S18886 brain level) came out at 0.117 nM.
